From ChEMBL document CHEMBL1821711, “Design and synthesis of novel arylpiperazine derivatives containing the imidazole core targeting 5-HT(2A) receptor and 5-HT transporter” (J Med Chem, 2011) come the findings set out here.

Usually IC50 stands for the concentration that gives 50% inhibition. The low end stands for inhibition by little substance, the high end for a need for much substance.

For one data set, the target named is Cytochrome P450 3A4 (Homo sapiens, UniProt P08684).
Cytochrome P450 3A4, sequence (P08684 whole entry): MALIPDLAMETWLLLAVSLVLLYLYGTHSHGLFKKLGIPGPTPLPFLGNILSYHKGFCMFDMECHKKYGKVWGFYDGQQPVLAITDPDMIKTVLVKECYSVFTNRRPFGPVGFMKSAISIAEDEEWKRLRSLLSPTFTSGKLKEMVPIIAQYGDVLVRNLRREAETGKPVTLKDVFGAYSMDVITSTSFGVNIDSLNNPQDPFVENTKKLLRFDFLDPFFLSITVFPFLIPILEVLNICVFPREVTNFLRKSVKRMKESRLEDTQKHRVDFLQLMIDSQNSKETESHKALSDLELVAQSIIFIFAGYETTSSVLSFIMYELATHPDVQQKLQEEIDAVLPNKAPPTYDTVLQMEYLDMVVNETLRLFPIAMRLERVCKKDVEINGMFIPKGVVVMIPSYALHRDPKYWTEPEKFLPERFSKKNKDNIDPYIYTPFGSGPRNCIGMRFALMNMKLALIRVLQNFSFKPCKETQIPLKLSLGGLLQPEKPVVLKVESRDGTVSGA
Experiment: not given
Details: not given
As to `Cc1c(Cl)cccc1N1CCN(CCCNC(=O)c2nc(-c3ccccc3)n(-c3ccccc3)c2Cn2cncn2)CC1`, the IC50 was over 20 µM.

`Cc1c(Cl)cccc1N1CCN(CCCNC(=O)c2nc(-c3ccccc3)n(-c3ccccc3)c2C)CC1` showed an IC50 of over 20 µM.

For a further data set, the target named is Cytochrome P450 2D6 (Homo sapiens, UniProt P10635).
Cytochrome P450 2D6, sequence (P10635 whole entry): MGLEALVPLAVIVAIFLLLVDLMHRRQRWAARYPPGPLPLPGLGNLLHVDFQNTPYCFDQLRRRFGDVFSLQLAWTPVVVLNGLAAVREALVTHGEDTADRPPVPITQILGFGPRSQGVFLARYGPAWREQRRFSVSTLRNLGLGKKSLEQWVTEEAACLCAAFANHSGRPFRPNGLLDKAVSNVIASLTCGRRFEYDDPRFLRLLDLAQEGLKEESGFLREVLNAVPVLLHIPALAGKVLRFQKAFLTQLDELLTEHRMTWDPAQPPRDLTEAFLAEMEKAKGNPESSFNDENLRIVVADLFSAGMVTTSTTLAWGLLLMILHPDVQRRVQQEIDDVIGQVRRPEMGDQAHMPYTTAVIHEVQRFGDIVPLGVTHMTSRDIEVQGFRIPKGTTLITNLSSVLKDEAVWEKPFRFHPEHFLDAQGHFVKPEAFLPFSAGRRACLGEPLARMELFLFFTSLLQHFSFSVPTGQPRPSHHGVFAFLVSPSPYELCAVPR
Experiment: not given
Details: not given
Turning to `Cc1c(Cl)cccc1N1CCN(CCCNC(=O)c2nc(-c3ccccc3)n(-c3ccccc3)c2Cn2cncn2)CC1`, the IC50 was determined as 4.8 µM.

The molecule `Cc1c(Cl)cccc1N1CCN(CCCNC(=O)c2nc(-c3ccccc3)n(-c3ccccc3)c2C)CC1` returned a half-maximal inhibitory concentration (IC50) of 5.4 µM.

The target of the next data set is T1, Cytochrome P450 1A2 (Homo sapiens, UniProt P05177).
T1 sequence (P05177 whole entry): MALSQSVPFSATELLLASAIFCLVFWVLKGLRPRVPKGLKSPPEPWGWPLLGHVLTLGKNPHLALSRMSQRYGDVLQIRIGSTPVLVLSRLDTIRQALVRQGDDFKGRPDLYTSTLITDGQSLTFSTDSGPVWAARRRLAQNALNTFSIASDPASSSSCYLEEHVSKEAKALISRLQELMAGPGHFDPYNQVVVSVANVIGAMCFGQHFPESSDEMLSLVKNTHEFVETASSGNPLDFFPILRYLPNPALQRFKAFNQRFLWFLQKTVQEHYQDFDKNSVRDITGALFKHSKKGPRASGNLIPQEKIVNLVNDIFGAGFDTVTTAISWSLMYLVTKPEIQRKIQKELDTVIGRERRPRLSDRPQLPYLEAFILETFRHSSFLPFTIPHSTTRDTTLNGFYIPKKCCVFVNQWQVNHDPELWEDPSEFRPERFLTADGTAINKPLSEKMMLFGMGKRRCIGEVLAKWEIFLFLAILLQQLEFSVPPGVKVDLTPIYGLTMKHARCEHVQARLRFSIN
Experiment: not given
Details: not given
`Cc1c(Cl)cccc1N1CCN(CCCNC(=O)c2nc(-c3ccccc3)n(-c3ccccc3)c2Cn2cncn2)CC1` registered an IC50 of 15.3 µM. That is a double-digit micromolar value.

For `Cc1c(Cl)cccc1N1CCN(CCCNC(=O)c2nc(-c3ccccc3)n(-c3ccccc3)c2C)CC1`, the IC50 was over 20 µM.

Test system in the next data set: not listed separately
Briefly: in vitro. Particulars: mouse, ht-22.
Description: Cytotoxicity against mouse HT22 cells after 48 hrs by MTT assay
On to `Cc1c(Cl)cccc1N1CCN(CCCNC(=O)c2nc(-c3ccccc3)n(-c3ccccc3)c2Cn2cncn2)CC1`, for which the CC50 at 48 h is 19.1 µM.

In the case of `Cc1c(Cl)cccc1N1CCN(CCCNC(=O)c2nc(-c3ccccc3)n(-c3ccccc3)c2C)CC1`, the CC50 at 48 h was 23.6 µM.

For the next data set, the target named is Cytochrome P450 2C9 (Homo sapiens, UniProt P11712).
Cytochrome P450 2C9, sequence (P11712 whole entry): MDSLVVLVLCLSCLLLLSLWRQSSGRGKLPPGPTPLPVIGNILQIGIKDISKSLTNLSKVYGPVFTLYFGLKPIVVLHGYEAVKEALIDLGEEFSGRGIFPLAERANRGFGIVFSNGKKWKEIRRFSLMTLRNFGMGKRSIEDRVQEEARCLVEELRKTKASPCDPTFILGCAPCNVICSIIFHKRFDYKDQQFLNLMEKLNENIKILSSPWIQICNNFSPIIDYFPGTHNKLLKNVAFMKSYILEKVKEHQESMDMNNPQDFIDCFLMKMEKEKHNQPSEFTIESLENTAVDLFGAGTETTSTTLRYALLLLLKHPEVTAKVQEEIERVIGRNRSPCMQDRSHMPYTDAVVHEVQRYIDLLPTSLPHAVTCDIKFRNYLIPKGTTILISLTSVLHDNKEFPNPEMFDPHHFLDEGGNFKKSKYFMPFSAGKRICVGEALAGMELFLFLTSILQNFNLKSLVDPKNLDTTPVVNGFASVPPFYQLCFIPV
Experiment: not given
Details: not given
As to `Cc1c(Cl)cccc1N1CCN(CCCNC(=O)c2nc(-c3ccccc3)n(-c3ccccc3)c2Cn2cncn2)CC1`, the midpoint of inhibition, the IC50, lay at 3.3 µM.

`Cc1c(Cl)cccc1N1CCN(CCCNC(=O)c2nc(-c3ccccc3)n(-c3ccccc3)c2C)CC1` showed an IC50 of 2.9 µM.

Another data set addresses T2, 5-hydroxytryptamine receptor 2C (Homo sapiens, UniProt P28335).
T2 sequence (P28335 whole entry): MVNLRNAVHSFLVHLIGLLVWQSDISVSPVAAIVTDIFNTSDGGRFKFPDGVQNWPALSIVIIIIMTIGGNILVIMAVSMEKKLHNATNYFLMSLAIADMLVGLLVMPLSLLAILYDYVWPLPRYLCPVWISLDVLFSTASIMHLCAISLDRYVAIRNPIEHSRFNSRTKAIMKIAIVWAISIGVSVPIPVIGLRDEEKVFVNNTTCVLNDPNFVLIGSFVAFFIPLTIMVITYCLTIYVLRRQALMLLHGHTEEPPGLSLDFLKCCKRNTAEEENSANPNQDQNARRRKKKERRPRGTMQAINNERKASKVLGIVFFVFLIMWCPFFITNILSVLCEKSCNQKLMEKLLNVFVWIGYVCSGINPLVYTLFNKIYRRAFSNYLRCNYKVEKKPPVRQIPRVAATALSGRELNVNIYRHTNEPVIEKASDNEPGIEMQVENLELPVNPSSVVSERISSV
Briefly: biochemical. In kind it is cell-based, CHO-K1.
Details: not given
`CCCc1nc(C(=O)NCC(O)CN2CCN(c3cccc(C)c3C)CC2)c(C)n1-c1ccc(F)cc1` (configuration not stated) gave an IC50 of 1 µM.

In the case of `CCCc1nc(C(=O)NCCCN2CCN(c3cccc(C)c3C)CC2)c(C)n1-c1ccc(F)cc1`, the IC50 came to 0.068 µM.

Consider `COc1ccc(-n2c(-c3ccccc3)nc(C(=O)NCCCN3CCN(c4cccc(Cl)c4Cl)CC3)c2C)cc1`, for which the IC50 was 0.064 µM.

`CCCc1nc(C(=O)NCCCN2CCN(c3cccc(Cl)c3Cl)CC2)c(C)n1-c1ccccc1F` had an IC50 of 0.189 µM.

As to `COc1ccc(-n2c(C)nc(C(=O)NCCCN3CCN(c4cccc(C)c4C)CC3)c2C)cc1`, half-maximal inhibition (IC50) required 0.191 µM.

`COc1ccc(-n2cc(C(=O)NCCCN3CCN(c4cccc(C)c4C)CC3)nc2-c2ccccc2)cc1` registered an IC50 of 0.104 µM.

In the case of `Cc1cccc(N2CCN(CCCNC(=O)c3nc(-c4ccccc4)n(-c4ccc5c(c4)OCCO5)c3C)CC2)c1C`, the IC50 stood at 0.068 µM. Compared with the last molecule, the IC50 is about 1.5-fold lower.

`Cc1c(C(=O)NCC(O)CN2CCN(c3cccc(Cl)c3Cl)CC2)nc(-c2ccccc2)n1-c1ccc(F)cc1` (configuration not stated) yielded an IC50 of 0.064 µM.

In turn, `Cc1cccc(N2CCN(CC(O)CNC(=O)c3nc(C)n(-c4ccc5c(c4)OCCO5)c3C)CC2)c1C` (configuration not stated) gave an IC50 of 0.61 µM.

In turn, `Cc1c(C(=O)NCCCN2CCN(c3cccc(Cl)c3Cl)CC2)nc(-c2ccccc2)n1-c1ccccc1F` returned an IC50 of 0.185 µM. Compared with the last molecule, the IC50 is about 3.3-fold lower.

In the case of `Cc1c(Cl)cccc1N1CCN(CCCNC(=O)c2nc(-c3ccccc3)n(-c3ccccc3)c2Cn2cncn2)CC1`, half-maximal inhibition (IC50) required 1.37 µM.

The molecule `CCCc1nc(C(=O)NCC(O)CN2CCN(c3cccc(C)c3C)CC2)c(C)n1-c1ccc2c(c1)OCCO2` (configuration not stated) showed an IC50 of 0.593 µM.

Molecule `Cc1c(Cl)cccc1N1CCN(CCCNC(=O)c2nc(C)n(CC(C)C)c2C)CC1` returned an IC50 of 2.22 µM.

`Cc1cccc(N2CCN(CCCNC(=O)c3nc(C)n(-c4ccc(Cl)cc4)c3C)CC2)c1C` yielded an IC50 of 0.233 µM.

As to `CCCc1nc(C(=O)NCCCN2CCN(c3cccc(Cl)c3C)CC2)cn1-c1ccc(Cl)cc1`, the IC50 came to 0.367 µM.

For `CCCc1nc(C(=O)NCC(O)CN2CCN(c3cccc(Cl)c3Cl)CC2)c(C)n1-c1ccc(F)cc1` (configuration not stated), the IC50 is 1.51 µM.

Turning to `Cc1cccc(N2CCN(CC(O)CNC(=O)c3nc(-c4ccccc4)n(-c4ccc(F)cc4)c3C)CC2)c1C` (configuration not stated), the IC50 amounted to 0.185 µM. This IC50 lies about 8.2-fold lower than the previous one.

As for `CCCc1nc(C(=O)NCCCN2CCN(c3cccc(C)c3C)CC2)cn1-c1ccc(F)cc1`, the IC50 worked out at 0.238 µM.

As to `Cc1nc(C(=O)NCC(O)CN2CCN(c3cccc(Cl)c3Cl)CC2)c(C)n1-c1ccccc1F` (configuration not stated), half-maximal inhibition (IC50) was put at 0.459 µM.

Take `CCCc1nc(C(=O)NCCCN2CCN(c3cccc(Cl)c3Cl)CC2)c(C)n1-c1ccc2c(c1)OCCO2`: half-maximal inhibition (IC50) required 0.297 µM.

The molecule `COc1ccc(-n2c(-c3ccccc3)nc(C(=O)NCC(O)CN3CCN(c4cccc(C)c4C)CC3)c2C)cc1` (configuration not stated) displayed an IC50 of 0.609 µM.

`CCCc1nc(C(=O)NCCCN2CCN(c3cccc(C)c3C)CC2)c(C)n1-c1ccccc1` yielded an IC50 of 0.286 µM.

As to `CCCc1nc(C(=O)NCCCN2CCN(c3cccc(Cl)c3Cl)CC2)c(C)n1-c1ccccc1OC`, the IC50 worked out at 0.383 µM.

In turn, `CCCc1nc(C(=O)NCCCN2CCN(c3cccc(Cl)c3C)CC2)c(C)n1-c1ccccc1OC` registered an IC50 of 0.473 µM.

Regarding `COc1ccc(-n2c(-c3ccccc3)nc(C(=O)NCCCN3CCN(c4cccc(C)c4C)CC3)c2C)cc1`, half-maximal inhibition (IC50) was put at 0.096 µM.

`Cc1nc(C(=O)NCCCN2CCN(c3cccc(Cl)c3Cl)CC2)c(C)n1C1CCCC1`: the IC50 was 0.139 µM. This IC50 and that of the molecule before are within 1.5-fold of each other.

For `CCCc1nc(C(=O)NCCCN2CCN(c3cccc(Cl)c3C)CC2)c(C)n1-c1ccc(F)cc1`, the IC50 amounted to 0.229 µM.

As for `Cc1cccc(N2CCN(CCCNC(=O)c3cn(-c4ccccc4)c(-c4ccccc4)n3)CC2)c1C`, half-maximal inhibition (IC50) required 0.116 µM.

For the molecule `Cc1c(Cl)cccc1N1CCN(CC(O)CNC(=O)c2nc(C)n(C3CCCC3)c2C)CC1` (configuration not stated), half-maximal inhibition (IC50) required 0.166 µM.

With `COc1ccc(-n2c(C)nc(C(=O)NCC(O)CN3CCN(c4cccc(C)c4C)CC3)c2C)cc1` (configuration not stated), the IC50 came to 0.546 µM.

Regarding `COc1ccc(-n2c(-c3ccccc3)nc(C(=O)NCC(O)CN3CCN(c4cccc(Cl)c4C)CC3)c2C)cc1` (configuration not stated), the half-maximal inhibitory concentration (IC50) is 0.526 µM. The IC50 values of the last two molecules are within 1.5-fold of each other.

Molecule `CCCc1nc(C(=O)NCCCN2CCN(c3cccc(Cl)c3C)CC2)c(C)n1-c1ccccc1` had an IC50 of 0.604 µM.

`Cc1cccc(N2CCN(CCCNC(=O)c3nc(-c4ccccc4)n(-c4ccc(F)cc4)c3C)CC2)c1C` displayed an IC50 of 0.0641 µM. This IC50 is about 9.4-fold lower than that of the molecule before.

`Cc1nc(C(=O)NCCCN2CCN(c3cccc(Cl)c3Cl)CC2)c(C)n1-c1ccccc1C(F)(F)F` yielded an IC50 of 0.155 µM.

With `CCCc1nc(C(=O)NCCCN2CCN(c3cccc(Cl)c3C)CC2)c(C)n1-c1ccc(OC)cc1`, the IC50 is 0.204 µM.

Molecule `Cc1c(Cl)cccc1N1CCN(CCCNC(=O)c2nc(C)n(-c3ccc(F)cc3)c2C)CC1` registered an IC50 of 0.113 µM. This IC50 is about 1.8-fold lower than that of the molecule before.

Turning to `CCCc1nc(C(=O)NCCCN2CCN(c3cccc(C)c3C)CC2)c(C)n1-c1ccccc1Cl`, the IC50 worked out at 0.235 µM. Against the preceding molecule, the IC50 is about 2.1-fold higher.

For `Cc1c(Cl)cccc1N1CCN(CCCNC(=O)c2nc(C)n(-c3ccc4c(c3)OCCO4)c2C)CC1`, inhibition was half-maximal at 0.106 µM (IC50). Against the preceding molecule, the IC50 is about 2.2-fold lower.

Regarding `Cc1c(Cl)cccc1N1CCN(CC(O)CNC(=O)c2nc(-c3ccccc3)n(-c3ccccc3)c2C)CC1` (configuration not stated), the concentration for half-maximal inhibition (IC50) stood at 0.739 µM.

In turn, `CCCc1nc(C(=O)NCC(O)CN2CCN(c3cccc(C)c3C)CC2)c(C)n1-c1ccc(Cl)cc1` (configuration not stated) yielded an IC50 of 0.661 µM.

Consider `Cc1c(Cl)cccc1N1CCN(CC(O)CNC(=O)c2nc(C)n(-c3ccc4c(c3)OCCO4)c2C)CC1` (configuration not stated), for which the IC50 came out at 0.663 µM.

`Cc1c(Cl)cccc1N1CCN(CCCNC(=O)c2nc(-c3ccccc3)n(-c3ccc(F)cc3)c2C)CC1` came in with an IC50 of 2.24 µM.

Consider `Cc1c(Cl)cccc1N1CCN(CCCNC(=O)c2nc(C)n(C3CCCC3)c2C)CC1`, for which the IC50 amounted to 4.37 µM.

In turn, `COc1ccc(-n2c(-c3ccccc3)nc(C(=O)NCCCN3CCN(c4cccc(Cl)c4C)CC3)c2C)cc1` registered an IC50 of 0.077 µM.

The molecule `COc1ccc(-n2c(C)nc(C(=O)NCC(O)CN3CCN(c4cccc(Cl)c4C)CC3)c2C)cc1` (configuration not stated) yielded an IC50 of 0.323 µM.

For `CCCc1nc(C(=O)NCCCN2CCN(c3cccc(Cl)c3C)CC2)c(C)n1-c1ccc2c(c1)OCCO2`, 0.061 µM corresponded to half-maximal inhibition (IC50).

Molecule `CCCn1c(C)nc(C(=O)NCCCN2CCN(c3cccc(Cl)c3Cl)CC2)c1C` came in with an IC50 of 0.198 µM.

For the molecule `Cc1cccc(N2CCN(CCCNC(=O)c3nc(-c4ccccc4)n(-c4ccccc4)c3C)CC2)c1C`, the midpoint of inhibition, the IC50, lay at 0.193 µM.

The molecule `Cc1c(Cl)cccc1N1CCN(CCCNC(=O)c2nc(-c3ccccc3)n(-c3ccccc3)c2C)CC1` yielded an IC50 of 1.51 µM.

`CCCc1nc(C(=O)NCCCN2CCN(c3cccc(C)c3C)CC2)c(C)n1-c1ccccc1OC` showed an IC50 of 0.283 µM.

As for `Cc1c(Cl)cccc1N1CCN(CC(O)CNC(=O)c2nc(C)n(-c3cccc(Cl)c3)c2C)CC1` (configuration not stated), 0.556 µM corresponded to half-maximal inhibition (IC50).

`CCCn1c(C)nc(C(=O)NCC(O)CN2CCN(c3cccc(C)c3C)CC2)c1C` (configuration not stated) gave an IC50 of over 10 µM.
